Tests used:
Format in all cases: in vivo, rat
rats [1] = assay: Striatal lesions produced by systemic 3-NP
Protocol: Systemic 3-NP treatment. 3-NP was diluted in water and adjusted to pH 7.4 with NaOH and administered at a dose of 10 mg/kg i.p. every 12 h. With this dosing regimen the animals become acutely ill after 4 to 5 days and show large striatal lesions. (Beal et al. (1993) J. Neurosci. 13:4181-4192.) At the same time points, 25 mg/kg of 7-NI dissolved in peanut oil at a concentration of 10 mg/ml (treated group) or vehicle alone (peanut oil, control group) was administered s.c.. Since there was variability in the times at which animals became ill, they were clinically examined 3 hours after the injections and 1 animal of each group was sacrificed when an animal was acutely ill, regardless of whether it was a vehicle treated control or a 7-NI treated animal. In an initial experiment 12 animals per group were studied. Following sacrifice, striatal lesion size was assessed by TTC staining.
In a second experiment, 5 animals per group were studied with the same treatment paradigm. Since the first experiment had shown by pairwise sacrifice that the vehicle treated animals always became ill before the 7-NI treated animals, a third experimental group of 5 animals was included to determine whether 7-NI treated animals become ill following administration of 3-NP. […] In this experiment animals were deeply anesthetized and transcardially perfused with ice cold saline, followed by phosphate buffered 4% paraformaldehyde (Beal et al. (1991) J. Neurosci. 11:1649-1659). Brains were sectioned at 50 μm intervals on a freezing microtome. Combined staining for Nissl substance and NADPH-diaphorase was performed. Adjacent sections were stained by immunohistochemistry with antibodies against ^8 -hydroxy-2deoxyguanosine.

rats [2] = assay: Striatal ATP after intrastriatal malonate (luciferin-luciferase); details: 7-NI 50 mg/kg; 3 μmol malonate; measured 1.5 h after injection
Protocol: ATP Measurements. The effects of 7-NI on malonate-induced decreases in striatal ATP concentrations were examined. 50 mg/kg of 7-NI dissolved in peanut oil or peanut oil vehicle were administered i.p. 0.5 h before intrastriatal injection of 3 μmol malonate. […] After decapitation the heads were rapidly frozen in liquid nitrogen and subsequently stored at -70° C. The striata were dissected from a 2 mm slice frontal and adjacent to the anterior commissure on a freezing cold plate. The corpus callosum, the septal complex, and the anterior commissure were used as dorsal and lateral, medial, and ventral boundaries. ATP was measured by the luciferin-luciferase assay (Lust et al. (1981) Anal. Biochem. 110-258-266). Proteins were measured on the pellets using a fluorimetric assay. Eight animals per group were examined.

Male Sprague Dawley rats = assay: Salicylate hydroxyl trapping and 3-nitrotyrosine after systemic 3-NP; details: 3-NP 20 mg/kg i.p. every 12 h x3; 7-NI 50 mg/kg
Protocol: Salicylate assay and 3-nitrotyrosine measurements. The salicylate hydroxyl trapping method of Floyd et al. ((1984) supra, Cao et al. (1988) Neurosci. Lett. 88:233-238, and Hall et al. (1993) J. Neurochem. 60:588-594) was used for measuring ^.cndot. OH radicals in striatal tissue following i.p. administration of 3-NP. Male Sprague Dawley rats weighing 125-150 g (n-10 per group) were injected i.p. every 12 h for 3 times with either (i) saline, (ii) 20 mg/kg of 3-NP and peanut oil vehicle, or (iii) 20 mg/kg of 3-NP and 7-NI dissolved in peanut oil. […] Salicylate and its metabolites 2,3 and 2,5 dihydroxybenzoic acid (DHBA) were quantified by HPLC with 16-electrode electrochemical detection (Beal et al. (1990) supra). Salicylate, 2,3 and 2,5 DHBA, tyrosine and 3-nitrotyrosine were measured electrochemically by oxidation at 840, 240, 120 mV, 600 mV, and 840 mV, respectively. The data were expressed as the ratio of 2,3 and 2,5 DHBA to salicylate and 3-nitrotyrosine concentrations for differing brain concentrations of salicylate and tyrosine, which could be a consequence of impairment of the blood-brain barrier (salicylate) or neuronal loss during treatment (tyrosine).

SMILES: O=[N+]([O-])c1cccc2cn[nH]c12 [7-NI, 7-nitroindazole]
- protection of striatum from 3-NP lesions (Nissl/NADPH-diaphorase histology) (rats [1]; 3-NP 10 mg/kg every 12 h with 7-NI, n=5): completed protected
- striatal lesions produced by 3-NP (TTC staining) (rats [1]; 3-NP 10 mg/kg i.p. every 12 h, 7-NI 50 mg/kg every 12 h as printed): completely prevented
- median accumulative 3-NP dose at first symptoms (rats [1]; 12 h): 130 mg/kg
- malonate-induced decreases of striatal ATP concentrations (rats [2]): significantly attenuated
- 3-NP-induced increase of 2,3 and 2,5 DHBA (Male Sprague Dawley rats): significantly attenuated
- 3-NP-induced increase of 3-nitrotyrosine in striatum (Male Sprague Dawley rats): significantly attenuated
